# Results taken from article PMC5059851, “Inhibition of Hedgehog-dependent tumors and cancer stem cells by a newly identified naturally occurring chemotype” (Cell Death & Disease, 2016).
# System: Hh pathway (Gli-responsive firefly luciferase reporter)
# Experiment: Hh-dependent Gli-luciferase reporter assay in SAG-treated NIH3T3 Shh-Light II cells
# Type: cell-based
# Details: SAG (200 nM)-treated NIH3T3 Shh-Light II cells, 48 h, normalized to Renilla; N.A. = Not Active
# Protocol: The inhibitory properties of the potential Smo antagonists 1–17 were investigated in a luciferase reporter assay that is widely used for characterizing Hh inhibitors. NIH3T3 Shh-Light II cells, stably incorporating a Gli-responsive firefly luciferase reporter (Gli-RE),[25] were treated with the synthetic Smo agonist SAG[24] alone or in combination with the selected small molecules to evaluate their dose–response ability to suppress Hh pathway. […] We excluded the possibility that inhibition activity in this assay was mediated by cytotoxicity because no decrease was shown in the luciferase assay control Renilla as observed instead for 13–17.
# The luciferase assay was performed in Shh-Light II cells, stably incorporating a Gli-responsive luciferase reporter and the pRL-TK Renilla (normalization control), treated for 48 h with SAG (200 nM) and the studied compounds. Luciferase and Renilla activity were assayed with a dual-luciferase assay system according to the manufacturer's instruction (Biotium Inc., Hayward, CA, USA). Results are expressed as luciferase/Renilla ratios and represent the mean±S.D. of three experiments, each performed in triplicate.
row,Molecule,IC50 [µM]
1,"3-benzo[1,3]dioxol-5-yl-1-(2,4,5-trimethoxy-phenyl)-propan-1-one [Compound 7]",38.5 ± 3.57
2,"CC1=C[C@@H]2c3c(O)cc(/C=C/c4ccc(O)cc4O)cc3OC3(c4ccc(O)c5c4OC(C)(C)C=C5)Oc4cc(O)ccc4[C@@H](C1)[C@H]23 (stereo partly drawn) [Compound 6, (3aS,13bS,13cR)-6-[(E)-2-(2,4-dihydroxyphenyl)vinyl]-8a-(5-hydroxy-2,2-dimethyl-2H-chromen-8-yl)-2-methyl-1,8a,13b,13c-tetrahydro-3aH-benzo[3,4]isochromeno[1,8-bc]chromene-4,11-diol]",30 ± 1.93
3,"CC(C)=CCc1c(O)ccc(C(=O)[C@H]2[C@@H](c3c(O)cc(/C=C/c4ccc(O)cc4O)cc3O)C=C(C)C[C@@H]2c2ccc(O)cc2O)c1O [Compound 8, [2,4-dihydroxy-3-(3-methyl-2-buten-1-yl)phenyl][(1R,2S,6S)-6-(2,4-dihydroxyphenyl)-2-{4-[(E)-2-(2,4-dihydroxyphenyl)vinyl]-2,6-dihydroxyphenyl}-4-methyl-3-cyclohexen-1-yl]methanone]",27.5 ± 2.67
4,"COc1cc(OC)c2c(=O)c(-c3ccc4c(c3)OCO4)coc2c1 [Compound 9, 3-(1,3-benzodioxol-5-yl)-5,7-dimethoxy-4H-chromen-4-one]",24.1 ± 1.6
5,"COc1ccc(C=CC(=O)c2c(OC)cc(OC)c(OC)c2OC)cc1OC [Compound 10, 3-(3,4-dimethoxy-phenyl)-1-(2,3,4,6-tetramethoxy-phenyl)-2-propen-1-one]",31.3 ± 2.29
6,"COc1c(C2COc3cc(O)c(CC=C(C)C)c(O)c3C2=O)ccc(O)c1CC=C(C)C (stereo not shown) [Compound 11, 5,7-dihydroxy-3-[4-hydroxy-2-methoxy-3-(3-methyl-2-buten-1-yl)phenyl]-6-(3-methyl-2-buten-1-yl)-2,3-dihydro-4H-chromen-4-one]",22.6

# Target: T1, human Smo D473H (Homo sapiens, UniProt Q99835, D473H)
# T1 construct: Myc-DDK; expressed in transfected cells; host or cells: HEK293T
# T1 sequence (Q99835 28-787 D473H): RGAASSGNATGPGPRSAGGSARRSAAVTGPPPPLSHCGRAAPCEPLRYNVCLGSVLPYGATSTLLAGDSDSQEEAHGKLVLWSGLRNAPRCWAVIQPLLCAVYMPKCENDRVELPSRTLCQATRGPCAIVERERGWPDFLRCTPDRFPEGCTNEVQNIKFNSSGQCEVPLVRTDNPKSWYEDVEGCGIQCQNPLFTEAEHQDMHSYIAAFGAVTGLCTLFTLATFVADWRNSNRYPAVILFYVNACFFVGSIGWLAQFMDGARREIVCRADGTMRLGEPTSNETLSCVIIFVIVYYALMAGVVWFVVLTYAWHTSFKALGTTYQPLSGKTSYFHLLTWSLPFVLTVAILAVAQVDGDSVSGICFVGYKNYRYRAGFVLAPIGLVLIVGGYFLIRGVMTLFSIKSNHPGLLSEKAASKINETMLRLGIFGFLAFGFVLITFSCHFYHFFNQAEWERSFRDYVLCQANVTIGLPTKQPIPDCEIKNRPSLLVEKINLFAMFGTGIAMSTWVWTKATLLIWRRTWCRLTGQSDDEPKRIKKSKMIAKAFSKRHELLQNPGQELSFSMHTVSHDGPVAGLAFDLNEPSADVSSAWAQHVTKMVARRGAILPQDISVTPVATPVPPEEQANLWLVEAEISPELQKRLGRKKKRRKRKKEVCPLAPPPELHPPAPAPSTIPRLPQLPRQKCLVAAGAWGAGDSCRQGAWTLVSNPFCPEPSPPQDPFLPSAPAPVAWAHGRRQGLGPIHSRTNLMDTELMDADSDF
# Experiment: Bodipy-Cyclopamine (BC) binding assay, HEK293T cells transfected with human Smo D473H
# Details: resistant Smo mutants versus WT
# Protocol: Cells were washed in PBS supplemented with 0.5% fetal bovine serum, fixed in 4% paraformaldehyde in phosphate-buffered saline (PBS) for 10 min, and incubated for 2 h at 37 °C both in the same medium supplemented with Bodipy-Cyclopamine (5 nM) and the studied compounds. The cells were permeabilized with Triton X100 (Sigma) 0.2%. Dako Fluorescent mounting (Dako, Carpinteria, CA, USA) was used as mounting medium and Hoechst reagent for staining of the cell nuclei. Bodipy (green) and Hoechst (blue) signals were analyzed in three to four representative fields per coverslip (× 20 magnification, 1000 cells/field). Data were expressed as percentage of BC incorporation observed with BC alone.[95]
row,Molecule,loss of affinity for the resistant Smo mutants in binding assay
1,"CS(=O)(=O)c1ccc(C(=O)Nc2ccc(Cl)c(-c3ccccn3)c2)c(Cl)c1 [Vismodegib, reference compound]",about 1000 fold
